What was measured:
Assay type in all cases: toxicity, cell-based
U2OS = assay: Incucyte cell viability with U2OS; conditions: human, 10 µM, compound concentration 10 uM
Fibroblast = assay: Incucyte cell viability with human fibroblast; conditions: 10 µM, compound concentration 10 uM
HEK-293T = assay: Incucyte cell viability with HEK293T; conditions: human, 10 µM, compound concentration 10 uM
Also: unitless GR value; below 1 slowed growth and below 0 cell loss.

SMILES | Growth Rate (U2OS; 6 h, replicate number 1) | Growth Rate (U2OS; 12 h, replicate number 1) | Growth Rate (U2OS; 18 h, replicate number 1) | Growth Rate (U2OS; 18 h, replicate number 2) | Growth Rate (U2OS; 24 h, replicate number 2) | Growth Rate (Fibroblast; 0 h, replicate number 1) | Growth Rate (Fibroblast; 6 h, replicate number 1) | Growth Rate (Fibroblast; 18 h, replicate number 2) | Growth Rate (Fibroblast; 24 h, replicate number 2) | Growth Rate (HEK-293T; 0 h, replicate number 1) | Growth Rate (HEK-293T; 0 h, replicate number 2) | Growth Rate (HEK-293T; 12 h, replicate number 2) | Growth Rate (HEK-293T; 18 h, replicate number 1) | Growth Rate (HEK-293T; 18 h, replicate number 2) | Growth Rate (HEK-293T; 24 h, replicate number 1) | Growth Rate (HEK-293T; 24 h, replicate number 2) | Growth Rate (U2OS; 12 h, replicate number 2) | Growth Rate (U2OS; 24 h, replicate number 1) | Growth Rate (HEK-293T; 6 h, replicate number 1) | Growth Rate (HEK-293T; 6 h, replicate number 2) | further results
O=C(O)Cc1cc(I)c(Oc2ccc(O)c(I)c2)c(I)c1 [TIRATRICOL] | 0.77 | -0.73 | 0.97 | 0.96 | 0.9 | 0.68 | 0.72 | 0.7 | 0.76 | 0.25 | -0.35 | 0.66 | 0.92 | 0.7 | 1 | 0.69 |  |  |  |  | Growth Rate (Fibroblast; 6 h, replicate number 2): 0.26; Growth Rate (Fibroblast; 12 h, replicate number 2): 0.55; Growth Rate (Fibroblast; 24 h, replicate number 1): 0.92
COc1cc(C)c(S(=O)(=O)N(C)CCOCC(=O)N(C)[C@H]2CCC[C@@H](N3CCN(C)CC3)C2)c(C)c1.O=C(O)C(O)C(O)C(=O)O |  |  |  |  |  | -1 | 0.87 | 0.67 | 0.92 |  | 0.26 |  |  |  |  |  | 0.86 |  |  |  | Growth Rate (Fibroblast; 6 h, replicate number 2): -0.57; Growth Rate (Fibroblast; 12 h, replicate number 2): 0.57; Growth Rate (Fibroblast; 18 h, replicate number 1): 0.93
NC(=O)c1ccc2[nH]c(-c3ccc(Oc4ccc(Cl)cc4)cc3)nc2c1 | -0.28 | 0.47 | 0.72 | 0.83 | 0.82 | 0.02 | -0.26 |  |  | 0.58 |  | 0.93 |  |  |  | 0.98 | 0.71 | 0.75 | 0.6 | 0.12 | Growth Rate (U2OS; 0 h, replicate number 2): -0.59; Growth Rate (U2OS; 6 h, replicate number 2): 0.74; Growth Rate (Fibroblast; 0 h, replicate number 2): -0.68; Growth Rate (Fibroblast; 12 h, replicate number 1): -1
CC(=O)c1ccc2c(c1)/C(=C(/NC1CCN(C)CC1)c1ccc3c(c1)OCO3)C(=O)N2 | 0.57 | 0.52 | 0.32 | 0.13 | 0.13 |  |  | 0.48 | 0.37 | -0.53 | 0.02 | -0.83 | -0.5 | -0.63 | -0.37 | -0.45 | 0.33 | 0.21 | -0.84 | -0.95 | Growth Rate (Fibroblast; 12 h, replicate number 2): 0.74; Growth Rate (Fibroblast; 18 h, replicate number 1): 0.78; Growth Rate (Fibroblast; 24 h, replicate number 1): 0.63; Growth Rate (HEK-293T; 12 h, replicate number 1): -0.7
COc1cc2ncnc(Nc3cccc(O)c3)c2cc1OC | 0.98 | 0.83 | 0.88 | 0.69 | 0.84 | -1 |  |  |  |  |  | 0.71 | 0.96 | 0.75 |  | 0.77 | 0.75 |  | 0.14 | 0.13 | Growth Rate (U2OS; 0 h, replicate number 1): -0.82; Growth Rate (U2OS; 6 h, replicate number 2): 0.55; Growth Rate (Fibroblast; 0 h, replicate number 2): 0.07; Growth Rate (HEK-293T; 12 h, replicate number 1): 0.56
CN1CCC[C@H]1c1cccnc1 [NICOTINE] | 0.16 |  |  | 0.77 | 0.86 |  |  |  |  | 0.69 |  | 0.75 | 0.99 | 0.76 | 0.93 | 0.85 | 0.66 |  | 0.4 | 0.38 | Growth Rate (U2OS; 0 h, replicate number 1): -0.33; Growth Rate (U2OS; 0 h, replicate number 2): -1; Growth Rate (U2OS; 6 h, replicate number 2): 0.24; Growth Rate (Fibroblast; 0 h, replicate number 2): -0.9; Growth Rate (Fibroblast; 6 h, replicate number 2): -0.93; Growth Rate (HEK-293T; 12 h, replicate number 1): 0.64
CCCn1cc(-c2cc(C3C(=O)N(CC)c4ccc(C(F)(F)F)cc4N(c4ccccc4)C3=O)cc(OC)c2O)cn1 (stereo not drawn) |  |  |  |  |  |  | 0.92 | 0.74 | 0.85 | 0.67 | 0.59 |  |  |  |  |  |  | 0.91 |  |  | Growth Rate (Fibroblast; 0 h, replicate number 2): 0.51; Growth Rate (Fibroblast; 6 h, replicate number 2): -0.56; Growth Rate (Fibroblast; 12 h, replicate number 2): 0.46
Cc1cc(CN)cc(C)c1-c1ncn(C)c1-c1ccnc2cc(F)ccc12.Cl | 0.34 | 0.92 |  |  |  | -1 | 0.02 | 0.81 | 0.96 |  | 0.04 |  |  |  |  |  |  |  | 0.92 |  | Growth Rate (U2OS; 6 h, replicate number 2): 0.85; Growth Rate (Fibroblast; 0 h, replicate number 2): -0.39; Growth Rate (Fibroblast; 6 h, replicate number 2): -0.26; Growth Rate (Fibroblast; 12 h, replicate number 1): 0.77; Growth Rate (Fibroblast; 18 h, replicate number 1): 0.6; Growth Rate (Fibroblast; 24 h, replicate number 1): 0.89
Cc1cc(OC2CCS(=O)(=O)CC2)cc(C)c1-c1cccc(COc2ccc(C(=O)O)c(F)c2)c1 | 0.56 | 0.61 | 0.85 | 0.77 | 0.75 | -0.85 | 0.86 |  | 0.92 |  | 0.65 | 0.96 | 0.96 | 0.88 | 0.9 | 0.84 | 0.49 | 0.98 |  |  | Growth Rate (U2OS; 0 h, replicate number 2): 0.93; Growth Rate (U2OS; 6 h, replicate number 2): 0.65; Growth Rate (Fibroblast; 12 h, replicate number 2): 0.57
O=C1Nc2ccc(I)cc2/C1=C/c1cc(Br)c(O)c(Br)c1 |  |  |  |  |  | -1 |  |  |  | -0.98 | 0.38 | 0.98 |  | 0.88 |  | 0.86 |  |  |  | 0.9 | Growth Rate (U2OS; 0 h, replicate number 1): -0.98; Growth Rate (U2OS; 0 h, replicate number 2): 0.76
Cc1[nH]nc2ccc(-c3cncc(OCC(N)Cc4c[nH]c5ccccc45)c3)cc12 (stereo not drawn) |  |  | 0.51 |  | 0.13 |  | -1 | 0.88 | 0.21 | -0.53 | -0.56 | 0.41 | 0.65 | 0.08 | 0.19 | -0.02 |  | 0.09 |  |  | Growth Rate (U2OS; 0 h, replicate number 2): 0.54
Cc1nccc(COC(=O)N2C[C@@H]3[C@@H](CNC(=O)c4ccc5[nH]nnc5c4)[C@@H]3C2)n1 [BI 3017] | 0.95 |  |  |  |  |  |  | 0.73 | 0.95 | 0.2 | 0.4 |  |  |  |  | 0.99 | 0.99 | 0.86 | 0.95 |  | Growth Rate (U2OS; 0 h, replicate number 1): 0.85; Growth Rate (Fibroblast; 18 h, replicate number 1): 0.93
N[C@@H]1CCCC[C@H]1Oc1ccc2ncc(-c3cc4ccccc4o3)n2n1 | -0.96 | -0.95 | -0.88 | -0.72 | -0.63 | -1 | -0.12 | -0.65 | -0.55 |  |  | -0.77 | -0.66 | -0.63 | -0.53 | -0.43 | -0.8 | -0.75 | -0.98 | -0.97 | Growth Rate (U2OS; 0 h, replicate number 1): -0.99; Growth Rate (U2OS; 6 h, replicate number 2): -0.91; Growth Rate (Fibroblast; 6 h, replicate number 2): -0.77; Growth Rate (Fibroblast; 12 h, replicate number 1): -0.57; Growth Rate (Fibroblast; 12 h, replicate number 2): -0.62; Growth Rate (Fibroblast; 18 h, replicate number 1): -0.67; Growth Rate (Fibroblast; 24 h, replicate number 1): -0.62; Growth Rate (HEK-293T; 12 h, replicate number 1): -0.86
CC(=O)c1ccc2c(c1)/C(=C(/Nc1cccc(C#N)c1)c1ccc3c(c1)OCCO3)C(=O)N2 |  |  | 0.73 | 0.5 | 0.43 | 0.26 |  |  | 0.84 | -0.8 |  | 0.12 | -0.15 | -0.03 | -0.16 | -0.02 | 0.72 | 0.52 | 0.26 | 0.65 | Growth Rate (Fibroblast; 0 h, replicate number 2): -0.78; Growth Rate (HEK-293T; 12 h, replicate number 1): -0.22
COC1(C#Cc2ccc(Cl)c(-c3ncc4c(n3)-c3sc(NC(C)=O)nc3CC4)c2)CCN(C)CC1 | 0.79 | 0.91 | 0.64 |  | 0.62 |  | 0.02 | -0.14 | -0.15 |  | -1 | -0.19 | -0.17 | -0.1 | -0.05 | 0.05 | 0.66 | 0.78 | -0.41 | -0.37 | Growth Rate (U2OS; 0 h, replicate number 1): 0.64; Growth Rate (U2OS; 0 h, replicate number 2): 0.98; Growth Rate (U2OS; 6 h, replicate number 2): 0.62; Growth Rate (Fibroblast; 6 h, replicate number 2): -0.27; Growth Rate (Fibroblast; 12 h, replicate number 1): 0.03; Growth Rate (Fibroblast; 12 h, replicate number 2): -0.12; Growth Rate (Fibroblast; 18 h, replicate number 1): -0.03; Growth Rate (Fibroblast; 24 h, replicate number 1): -0.11; Growth Rate (HEK-293T; 12 h, replicate number 1): -0.29

Source: ChEMBL document CHEMBL5303304, “EUbOPEN Chemogenomics Library - IncuCyte” (2023)
